From US8614327B2 (Vertex Pharmaceuticals Incorporated, priority 2004, dated 2013) come the findings set out here.

The assay has as its target T1, ΔF508-CFTR (Homo sapiens, UniProt P13569, DEL508-508).
T1 construct: expressed in transfected cells
The experiment in a line: Membrane potential optical (FRET/VIPR) assay, identification of potentiator compounds. Format: cell-based. The following applies: Table 3, assay not given; for % Activity: relative efficacy. In short, it runs like this: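 NIH3T3 mouse fibroblasts stably expressing ΔF508-CFTR, temperature-corrected 24 h at 27° C., read on VIPR by FRET between CC2-DMPE and DiSBAC2(3). Potentiators identified in a double-addition format, first adding chloride-free (gluconate) medium with or without compound.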

T1 sequence (P13569 with tags, fused parts or gaps DEL508-508): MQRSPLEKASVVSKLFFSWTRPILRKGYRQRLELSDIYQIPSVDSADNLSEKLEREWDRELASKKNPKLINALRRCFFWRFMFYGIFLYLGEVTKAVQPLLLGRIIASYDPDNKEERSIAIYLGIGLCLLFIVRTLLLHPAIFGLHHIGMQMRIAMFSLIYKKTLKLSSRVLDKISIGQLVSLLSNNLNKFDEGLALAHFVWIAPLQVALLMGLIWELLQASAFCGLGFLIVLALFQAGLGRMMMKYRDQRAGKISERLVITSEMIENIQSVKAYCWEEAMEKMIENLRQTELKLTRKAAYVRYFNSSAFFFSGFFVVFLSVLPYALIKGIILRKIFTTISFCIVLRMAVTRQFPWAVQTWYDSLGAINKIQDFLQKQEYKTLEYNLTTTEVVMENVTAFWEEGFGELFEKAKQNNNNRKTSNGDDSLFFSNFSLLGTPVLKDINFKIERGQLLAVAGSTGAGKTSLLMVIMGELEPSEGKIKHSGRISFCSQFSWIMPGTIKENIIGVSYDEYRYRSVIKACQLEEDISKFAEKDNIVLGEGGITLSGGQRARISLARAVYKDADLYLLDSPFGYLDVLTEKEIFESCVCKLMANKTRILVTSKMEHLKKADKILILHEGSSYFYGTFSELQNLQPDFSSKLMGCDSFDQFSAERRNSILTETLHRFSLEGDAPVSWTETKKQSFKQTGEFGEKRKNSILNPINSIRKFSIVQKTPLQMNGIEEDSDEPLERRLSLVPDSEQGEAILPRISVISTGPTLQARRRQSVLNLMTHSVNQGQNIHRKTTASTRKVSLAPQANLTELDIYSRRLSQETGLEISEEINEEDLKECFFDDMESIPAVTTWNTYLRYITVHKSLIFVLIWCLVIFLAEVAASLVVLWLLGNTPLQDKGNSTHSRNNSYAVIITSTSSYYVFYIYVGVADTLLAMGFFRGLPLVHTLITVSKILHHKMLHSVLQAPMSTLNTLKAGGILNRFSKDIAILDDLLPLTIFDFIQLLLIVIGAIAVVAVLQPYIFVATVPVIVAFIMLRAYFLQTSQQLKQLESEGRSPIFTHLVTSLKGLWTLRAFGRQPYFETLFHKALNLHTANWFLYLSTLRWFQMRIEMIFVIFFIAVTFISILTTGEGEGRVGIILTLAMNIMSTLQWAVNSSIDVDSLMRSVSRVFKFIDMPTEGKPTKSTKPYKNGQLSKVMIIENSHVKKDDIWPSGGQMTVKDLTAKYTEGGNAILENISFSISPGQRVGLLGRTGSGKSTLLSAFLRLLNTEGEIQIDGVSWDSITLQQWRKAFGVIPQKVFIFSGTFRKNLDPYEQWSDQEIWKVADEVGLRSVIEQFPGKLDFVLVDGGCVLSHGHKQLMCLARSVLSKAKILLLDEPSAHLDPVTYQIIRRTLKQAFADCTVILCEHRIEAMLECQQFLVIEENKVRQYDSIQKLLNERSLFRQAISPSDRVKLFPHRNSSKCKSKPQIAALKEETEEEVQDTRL

The EC50 is the concentration that produces a half-maximal response. For `O=C(Nc1ccc2cc(C(F)(F)F)[nH]c2c1)c1c[nH]c2cccc(O)c2c1=O` [Compound 693, 5-hydroxy-4-oxo-N-[2-(trifluoromethyl)-1H-indol-6-yl]-1H-quinoline-3-carboxamide], the EC50 was below 10 µM and the “% Activity” value is on record as “++ (between 25% to 100%)”.

For `CC(C)(C)c1cc(C(C)(C)C)c(NC(=O)c2c[nH]c3cc(OC(F)(F)F)ccc3c2=O)cc1O` [Compound 694, N-(5-hydroxy-2,4-ditert-butyl-phenyl)-4-oxo-7-(trifluoromethoxy)-1H-quinoline-3-carboxamide], the EC50 is below 10 µM and the “% Activity” value is “++ (between 25% to 100%)”.

Consider `O=C(Nc1cc(O)c(Cl)cc1F)c1c[nH]c2ccccc2c1=O` [Compound 695, N-(4-chloro-2-fluoro-5-hydroxy-phenyl)-4-oxo-1H-quinoline-3-carboxamide], for which the EC50 was below 10 µM and the “% Activity” value is “++ (between 25% to 100%)”.

Take `O=C(Nc1ccc(OC(F)(F)F)c(N2CCCCC2)c1)c1c[nH]c2ccccc2c1=O` [Compound 696, 4-oxo-N-[3-(1-piperidyl)-4-(trifluoromethoxy)phenyl]-1H-quinoline-3-carboxamide]: the EC50 was below 10 µM and the “% Activity” value is “++ (between 25% to 100%)”.

Turning to `Cc1cccc2[nH]cc(C(=O)Nc3ccc(N4CCC[C@H]4C)cc3C(F)(F)F)c(=O)c12` [Compound 697, (R)-5-methyl-N-(4-(2-methylpyrrolidin-1-yl)-2-(trifluoromethyl)phenyl)-4-oxo-1,4-dihydroquinoline-3-carboxamide], the EC50 is below 10 µM and the “% Activity” value is reported as “++ (between 25% to 100%)”.

With `O=C(Nc1ccc(N2CCC[C@@H]2C(=O)O)cc1C(F)(F)F)c1c[nH]c2ccccc2c1=O` [Compound 698, (R)-1-[4-[(4-oxo-1H-quinolin-3-yl)carbonylamino]-3-(trifluoromethyl)phenyl]pyrrolidine-2-carboxylic acid], the concentration for a half-maximal effect (EC50) is below 10 µM and the “% Activity” value is recorded as “++ (between 25% to 100%)”.

As to `O=C(Nc1ccc(C(F)(F)F)c(O)c1)c1c[nH]c2cccc(O)c2c1=O` [Compound 700, 5-hydroxy-N-[3-hydroxy-4-(trifluoromethyl)phenyl]-4-oxo-1H-quinoline-3-carboxamide], the EC50 is below 10 µM and the “% Activity” value was “++ (between 25% to 100%)”.

For `Cc1cccc2[nH]cc(C(=O)Nc3ccc(OC(C)C)c(O)c3)c(=O)c12` [Compound 701, N-(3-hydroxy-4-isopropoxy-phenyl)-5-methyl-4-oxo-1H-quinoline-3-carboxamide], the EC50 is below 10 µM and the “% Activity” value is “++ (between 25% to 100%)”.

`CC(C)(C)c1cc(C(C)(C)C)c(NC(=O)c2c[nH]c3ccc(O)cc3c2=O)cc1O` [Compound 702, 6-hydroxy-N-(5-hydroxy-2,4-ditert-butyl-phenyl)-4-oxo-1H-quinoline-3-carboxamide]: the EC50 is below 10 µM and the “% Activity” value was “++ (between 25% to 100%)”.

Regarding `Cc1ccc2c(=O)c(C(=O)Nc3cc4[nH]ccc4cc3C(C)(C)C)c[nH]c2c1` [Compound 704, 7-methyl-4-oxo-N-(5-tert-butyl-1H-indol-6-yl)-1H-quinoline-3-carboxamide], the half-maximal effective concentration (EC50) is below 10 µM and the “% Activity” value was “++ (between 25% to 100%)”.

Regarding `O=C(Nc1ccc(N2CC[C@@H](O)C2)cc1C(F)(F)F)c1c[nH]c2ccccc2c1=O` [Compound 705, (R)-N-(4-(3-hydroxypyrrolidin-1-yl)-2-(trifluoromethyl)phenyl)-4-oxo-1,4-dihydroquinoline-3-carboxamide], the 50% effective concentration (EC50) is below 10 µM and the “% Activity” value is given as “++ (between 25% to 100%)”.

With `CC1(c2cc(F)c(NC(=O)c3c[nH]c4cccc(C(F)(F)F)c4c3=O)cc2O)CCCCC1` [Compound 706, N-[2-fluoro-5-hydroxy-4-(1-methylcyclohexyl)-phenyl]-4-oxo-5-(trifluoromethyl)-1H-quinoline-3-carboxamide], the EC50 was below 10 µM and the “% Activity” value is reported as “+++ (>100%)”.

Turning to `CC(C)(C)c1ccc(NC(=O)c2c[nH]c3ccccc3c2=O)cc1N1CCCC1` [Compound 707, 4-oxo-N-(3-pyrrolidin-1-yl-4-tert-butyl-phenyl)-1H-quinoline-3-carboxamide], the EC50 was below 10 µM and the “% Activity” value is “++ (between 25% to 100%)”.

As for `O=C(Nc1csc(C(F)(F)F)c1-c1ccccc1)c1c[nH]c2ccccc2c1=O` [Compound 708, 4-oxo-N-[4-phenyl-5-(trifluoromethyl)-3-thienyl]-1H-quinoline-3-carboxamide], the 50% effective concentration (EC50) was below 10 µM and the “% Activity” value was “++ (between 25% to 100%)”.

For `COc1cc2c(=O)c(C(=O)Nc3cc(O)c(C(C)(C)C)cc3C(C)(C)C)c[nH]c2cc1F` [Compound 709, 7-fluoro-N-(5-hydroxy-2,4-ditert-butyl-phenyl)-6-methoxy-4-oxo-1H-quinoline-3-carboxamide], the EC50 was below 10 µM and the “% Activity” value is “+++ (>100%)”.

With `CN1CCC(C)(C)c2ccc(NC(=O)c3c[nH]c4ccccc4c3=O)cc21` [Compound 710, 4-oxo-N-(1,4,4-trimethyl-2,3-dihydroquinolin-7-yl)-1H-quinoline-3-carboxamide], the EC50 was below 10 µM and the “% Activity” value is given as “++ (between 25% to 100%)”.

As to `O=C(Nc1cc(C(=O)O)c2cc[nH]c2c1)c1c[nH]c2ccccc2c1=O` [Compound 711, 6-[(4-oxo-1H-quinolin-3-yl)carbonylamino]-1H-indole-4-carboxylic acid], the EC50 was below 10 µM and the “% Activity” value was “++ (between 25% to 100%)”.

As to `C[C@H]1CCCCN1c1ccc(NC(=O)c2c[nH]c3ccccc3c2=O)c(C(F)(F)F)c1` [Compound 713, (S)-N-(4-(2-methylpiperidin-1-yl)-2-(trifluoromethyl)phenyl)-4-oxo-1,4-dihydroquinoline-3-carboxamide], the EC50 is below 10 µM and the “% Activity” value is recorded as “+++ (>100%)”.

Take `C[C@H]1CCCN1c1ccc(NC(=O)c2c[nH]c3ccc(F)cc3c2=O)c(C(F)(F)F)c1` [Compound 714, (S)-6-fluoro-N-(4-(2-methylpyrrolidin-1-yl)-2-(trifluoromethyl)phenyl)-4-oxo-1,4-dihydroquinoline-3-carboxamide]: the EC50 is below 10 µM and the “% Activity” value is “++ (between 25% to 100%)”.

With `COC(=O)[C@@H]1CCCCN1c1ccc(NC(=O)c2c[nH]c3ccccc3c2=O)c(C(F)(F)F)c1` [Compound 715, (S)-methyl 1-(4-(4-oxo-1,4-dihydroquinoline-3-carboxamido)-3-(trifluoromethyl)phenyl)piperidine-2-carboxylate], the EC50 was below 10 µM and the “% Activity” value was “++ (between 25% to 100%)”.

As for `O=C(Nc1ccc(C(F)(F)F)c(O)c1)c1c[nH]c2c(Cl)cccc2c1=O` [Compound 716, 8-chloro-N-[3-hydroxy-4-(trifluoromethyl)phenyl]-4-oxo-1H-quinoline-3-carboxamide], the concentration giving a half-maximal response (EC50) is below 10 µM and the “% Activity” value was “++ (between 25% to 100%)”.

With `COc1cc(NC(=O)c2c[nH]c3ccccc3c2=O)cc2ccccc12` [Compound 717, N-(4-methoxy-2-naphthyl)-4-oxo-1H-quinoline-3-carboxamide], the EC50 was below 10 µM and the “% Activity” value was “++ (between 25% to 100%)”.

On to `CC(C)(C)c1cc(C(C)(C)C)c(NC(=O)c2c[nH]c3c(F)ccc(F)c3c2=O)cc1O` [Compound 718, 5,8-difluoro-N-(5-hydroxy-2,4-ditert-butyl-phenyl)-4-oxo-1H-quinoline-3-carboxamide], for which the EC50 is below 10 µM and the “% Activity” value was “++ (between 25% to 100%)”.
